# From patent US8343983B2, “Substituted pyrazolo-pyrimidine compounds” (ArQule, Inc., priority 2009, dated 2013)
# Where two headings read alike, the source gives them in different places.
# Tested on: cancer cells
# Experiment: MTS assay: inhibition of cell growth (formazan absorbance at 492 nm after 72 hours with test compound)
# Assay type: cell-based
# Conditions: inhibition class
# Procedure, shortened: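 DMEM with 1% FBS; cells seeded at 3000/well and grown 18 h at 37 °C, then exposed to compound for 72 h and to MTS/PMS for 4 h. IC50 is the concentration giving a 50% absorbance drop; grades are % inhibition bands.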
# [1] = Homo sapiens, DLD-1 cells, read-out: DLD-1, MTS 72 hours at 10 uM
# [2] = Homo sapiens, KATO III cells, read-out: KATO III, MTS 72 hours at 10 uM
# [3] = Homo sapiens, MDA-MB-231 cells, read-out: MDA-MB-231, MTS 72 hours at 10 uM
# [4] = Homo sapiens, NCI-H1299 cells, read-out: NCI-H1299, MTS 72 hours at 10 uM
# [5] = Homo sapiens, PC-3 cells, read-out: PC-3, MTS 72 hours at 10 uM
# [6] = PACA-2 cells, read-out: PACA-2, MTS 72 hours at 10 uM
SMILES,inhibition at 10 µM [1] [%],inhibition at 10 µM [2] [%],inhibition at 10 µM [3] [%],inhibition at 10 µM [4] [%],inhibition at 10 µM [5] [%],inhibition at 10 µM [6] [%]
"COc1ccc(CN2CCc3n[nH]c4nc(SC)nc2c34)cc1 [Compound 99, 6-(4-methoxybenzyl)-4-(methylsulfanyl)-2,6,7,8-tetrahydro-1,2,3,5,6-pentaazaacenaphthylene]",< 50,< 50,< 50,< 50,< 50,< 50
"COc1ccc2c(CCNc3nc4c5c(n[nH]c5n3)CCN4Cc3ccccc3)c[nH]c2c1 [Compound 98, 6-benzyl-N-[2-(6-methoxy-1H-indol-3-yl)ethyl]-2,6,7,8-tetrahydro-1,2,3,5,6-pentaazaacenaphthylen-4-amine]",< 50,50 to 79,50 to 79,50 to 79,> 79,< 50
"c1ccc(N2CCc3n[nH]c4nc(N5CCN(c6ccncc6)CC5)nc2c34)cc1 [Compound 210, 6-phenyl-4-(4-pyridin-4-ylpiperazin-1-yl)-2,6,7,8-tetrahydro-1,2,3,5,6-pentaazaacenaphthylene]",> 79,> 79,> 79,> 79,> 79,> 79
"c1ccc(CC2CCN(c3nc4c5c(n[nH]c5n3)CCN4Cc3ccccc3)CC2)cc1 [Compound 45, 6-benzyl-4-(4-benzylpiperidin-1-yl)-2,6,7,8-tetrahydro-1,2,3,5,6-pentaazaacenaphthylene]",< 50,< 50,< 50,< 50,< 50,< 50
"Clc1cncc(Cl)c1N1CCN(c2nc3c4c(n[nH]c4n2)CCN3Cc2ccccc2)CC1 [Compound 85, 6-benzyl-4-[4-(3,5-dichloropyridin-4-yl)piperazin-1-yl]-2,6,7,8-tetrahydro-1,2,3,5,6-pentaazaacenaphthylene]",< 50,< 50,50 to 79,< 50,> 79,< 50
"O=C(C1CN(Cc2ccccc2)c2nc(NCc3ccccc3)nc3[nH]nc1c23)N1CCOCC1 (stereo not drawn) [Compound 237, N,6-dibenzyl-8-(morpholin-4-ylcarbonyl)-2,6,7,8-tetrahydro-1,2,3,5,6-pentaazaacenaphthylen-4-amine]",< 50,< 50,< 50,< 50,< 50,< 50
"COc1ccc(CN2CCCc3n[nH]c4nc(N5CCCC5)nc2c34)cc1 [Compound 244, 6-(4-methoxybenzyl)-4-pyrrolidin-1-yl-6,7,8,9-tetrahydro-2H-1,2,3,5,6-pentaazabenzo[cd]azulene]",< 50,< 50,< 50,< 50,< 50,< 50
"COc1ccc(CN2CCCc3n[nH]c4nc(NCc5ccc(Cl)cc5)nc2c34)cc1 [Compound 253, N-(4-chlorobenzyl)-6-(4-methoxybenzyl)-6,7,8,9-tetrahydro-2H-1,2,3,5,6-pentaazabenzo[cd]azulen-4-amine]",< 50,< 50,< 50,50 to 79,< 50,< 50
"Brc1cccc(CCNc2nc3c4c(n[nH]c4n2)CCN3Cc2ccccc2)c1 [Compound 28, 6-benzyl-N-[2-(3-bromophenyl)ethyl]-2,6,7,8-tetrahydro-1,2,3,5,6-pentaazaacenaphthylen-4-amine]",< 50,> 79,> 79,> 79,> 79,< 50
"COc1ccc(CCN(C)c2nc3c4c(n[nH]c4n2)CCN3Cc2ccccc2)cc1OC [Compound 14, 6-benzyl-N-[2-(3,4-dimethoxyphenyl)ethyl]-N-methyl-2,6,7,8-tetrahydro-1,2,3,5,6-pentaazaacenaphthylen-4-amine]",< 50,< 50,< 50,< 50,< 50,< 50
"COc1ccc(CN2CCc3n[nH]c4nc(NCc5cccnc5)nc2c34)cc1 [Compound 102, 6-(4-methoxybenzyl)-N-(pyridin-3-ylmethyl)-2,6,7,8-tetrahydro-1,2,3,5,6-pentaazaacenaphthylen-4-amine]",> 79,> 79,> 79,> 79,> 79,> 79
"O=C(NCc1ccccc1)C1CN(Cc2ccccc2)c2nc(NCc3ccc(Oc4ccccc4)cc3)nc3[nH]nc1c23 (stereo not drawn) [Compound 230, N,6-dibenzyl-4-[(4-phenoxybenzyl)amino]-2,6,7,8-tetrahydro-1,2,3,5,6-pentaazaacenaphthylene-8-carboxamide]",> 79,50 to 79,< 50,50 to 79,50 to 79,< 50
"c1ccc(CN2CCc3n[nH]c4nc(N5CCN(Cc6ccc7c(c6)OCO7)CC5)nc2c34)cc1 [Compound 15, 4-[4-(1,3-benzodioxol-5-ylmethyl)piperazin-1-yl]-6-benzyl-2,6,7,8-tetrahydro-1,2,3,5,6-pentaazaacenaphthylene]",< 50,< 50,< 50,< 50,< 50,< 50
"CN1CCN(c2nc3c4c(n[nH]c4n2)CCN3Cc2ccccc2)CC1 [Compound 80, 6-benzyl-4-(4-methylpiperazin-1-yl)-2,6,7,8-tetrahydro-1,2,3,5,6-pentaazaacenaphthylene]",< 50,< 50,< 50,< 50,< 50,< 50
"Fc1ccc(CCNc2nc3c4c(n[nH]c4n2)CCN3c2ccccc2)cc1 [Compound 221, N-[2-(4-fluorophenyl)ethyl]-6-phenyl-2,6,7,8-tetrahydro-1,2,3,5,6-pentaazaacenaphthylen-4-amine]",< 50,< 50,< 50,< 50,< 50,< 50
"c1ccc(CN2CCc3n[nH]c4nc(NCCc5ccc(-c6ccccc6)cc5)nc2c34)cc1 [Compound 66, 6-benzyl-N-(2-biphenyl-4-ylethyl)-2,6,7,8-tetrahydro-1,2,3,5,6-pentaazaacenaphthylen-4-amine]",50 to 79,< 50,< 50,< 50,< 50,50 to 79
"Cc1cccc2c(CCNc3nc4c5c(n[nH]c5n3)CCN4Cc3ccccc3)c[nH]c12 [Compound 73, 6-benzyl-N-[2-(7-methyl-1H-indol-3-yl)ethyl]-2,6,7,8-tetrahydro-1,2,3,5,6-pentaazaacenaphthylen-4-amine]",> 79,> 79,50 to 79,> 79,< 50,50 to 79
"O=C(NCc1ccccc1)C1CN(Cc2ccccc2)c2nc(N3CCN(c4ccccc4)CC3)nc3[nH]nc1c23 (stereo not drawn) [Compound 231, N,6-dibenzyl-4-(4-phenylpiperazin-1-yl)-2,6,7,8-tetrahydro-1,2,3,5,6-pentaazaacenaphthylene-8-carboxamide]",50 to 79,50 to 79,> 79,> 79,50 to 79,50 to 79
"COc1ccc(CNc2nc3c4c(n[nH]c4n2)CCN3Cc2ccccc2)cc1OC [Compound 47, 6-benzyl-N-(3,4-dimethoxybenzyl)-2,6,7,8-tetrahydro-1,2,3,5,6-pentaazaacenaphthylen-4-amine]",< 50,< 50,< 50,< 50,< 50,< 50
"COc1ccc(CN2CCc3n[nH]c4nc(N5CCOCC5)nc2c34)cc1 [Compound 110, 6-(4-methoxybenzyl)-4-morpholin-4-yl-2,6,7,8-tetrahydro-1,2,3,5,6-pentaazaacenaphthylene]",< 50,< 50,< 50,< 50,< 50,< 50
"COC(=O)Cn1nc2c3c(nc(SC)nc31)N(Cc1ccccc1)CC2 [Compound 172, methyl [6-benzyl-4-(methylsulfanyl)-7,8-dihydro-1,2,3,5,6-pentaazaacenaphthylen-2(6H)-yl]acetate]",50 to 79,< 50,< 50,< 50,> 79,> 79
"COc1cc2c(cc1OC)CN(c1nc3c4c(n[nH]c4n1)CCN3Cc1ccccc1)CC2 [Compound 58, 6-benzyl-4-(6,7-dimethoxy-3,4-dihydroisoquinolin-2(1H)-yl)-2,6,7,8-tetrahydro-1,2,3,5,6-pentaazaacenaphthylene]",50 to 79,< 50,50 to 79,50 to 79,> 79,< 50
